These results are taken from patent publication US6750222B2, “Substituted phenyl derivatives” (Bayer CropScience GmbH, priority 2001, dated 2004).

Data set [1] deals with Sinapis alba, Chrysanthemum segetum, Avena sativa, Stellaria media, Echinochloa crus-galli, Lolium multiflorum, Setaria spp., Abutilon theophrasti, Amaranthus …. Kind of data set: Pre-emergence effect on weeds (greenhouse pot test). The format is in vivo, monocotyledonous and dicotyledonous weed plants. Conditions: application rate of 2 kg and less of active substance per hectare; scored visually after 3 to 4 weeks by comparison with untreated controls. An excerpt: 1. Pre-Emergence Effect on Weeds
Seeds or rhizome pieces of monocotyledonous and dicotyledonous weed plants were placed in sandy loam soil in cardboard pots and covered with soil. The compounds according to the invention which were formulated in the form of wettable powders or emulsion concentrates were then applied to the surface of the soil cover in the form of aqueous suspensions or emulsions at an application rate of 600 to 800 l of water/ha (converted), in various dosages.
After the treatment, the pots were placed in a greenhouse and kept under good growth conditions for the weeds. After the test plants had emerged, the damage to the plants or the negative effect on the emergence was scored visually after a test period of 3 to 4 weeks by comparison with untreated controls. As shown by the test results, compounds according to the invention have good herbicidal pre-emergence activity against a broad spectrum of weed grasses and broad-leafed weeds.

For data set [2], the system named is Sinapis alba, Echinochloa crus-galli, Lolium multiflorum, Chrysanthemum segetum, Avena sativa, Stellaria media, Setaria spp., Abutilon theophrasti, Amaranthus …. Description: Post-emergence effect on weeds (greenhouse pot test). The format is in vivo, monocotyledonous and dicotyledonous weeds. Conditions: application rate of 2 kg and less of active substance per hectare; treated at three-leaf stage; scored visually after about 3 to 4 weeks by comparison with untreated controls. On the procedure:
2. Post-Emergence Effect on Weeds
Seeds or rhizome pieces of monocotyledonous and dicotyledonous weeds were placed in sandy loam soil in plastic pots, covered with soil and grown in a greenhouse under good growth conditions. Three weeks after sowing, the test plants were treated at the three-leaf stage. The compounds according to the invention which were formulated as wettable powders or emulsion concentrates were sprayed, at various dosages, onto the green parts of the plants at an application rate of 600 to 800 l of water/ha (converted). After the test plants had remained in the greenhouse for about 3 to 4 weeks under ideal growth conditions, the effect of the preparations was scored visually by comparison with untreated controls. The agents according to the invention also have good herbicidal activity post-emergence against a broad spectrum of economically important weed grasses and broad-leafed weeds.

On to `Cn1nc(C(F)(F)F)cc1Oc1cc(C#N)cc(Oc2cc(C(F)(F)F)nn2C)c1` [Chemical Example 1, 3,5-Bis-(1-methyl-3-trifluoromethylpyrazol-5-yloxy)benzonitrile], for which the melting point is 139 °C.

`Cn1nc(C(F)(F)F)cc1Oc1cc(F)cc(C#N)c1` [Chemical Example 2, 3-Fluoro-5-(1-methyl-3-trifluoromethylpyrazol-5-yloxy)benzonitrile] had a melting point of 84 °C. For the compound `Cn1nc(C(F)(F)F)cc1Oc1cc(C#N)cc(-n2ccc(C(F)(F)F)n2)c1` [Chemical Example 5, 3-(1-Methyl-3-trifluoromethylpyrazol-5-yloxy)-5-(3-trifluoromethylpyrazol-1-yl)benzonitrile], the melting point fell in the range of 116 to 117 °C. With `Cn1nc(C(F)(F)F)cc1Oc1cc(C#N)cc(Oc2cccc(C(F)(F)F)c2)c1` [Example 62a], the “herbicidal activity against harmful plants pre-emergence” value in data set [1] is on record as “very good herbicidal activity”. For the same compound, in data set [2], the “herbicidal activity against harmful plants post-emergence” value was “very good herbicidal activity”. With `N#Cc1cc(Oc2cccc(C(F)(F)F)c2)cc(Oc2cccc(C(F)(F)F)c2)c1` [Example 62b], the “herbicidal activity against harmful plants pre-emergence” value in data set [1] is listed as “very good herbicidal activity”. Also, the “herbicidal activity against harmful plants post-emergence” value in data set [2] is “very good herbicidal activity”.

As for `N#Cc1cc(Oc2ccnc(C(F)(F)F)c2)cc(Oc2ccnc(C(F)(F)F)c2)c1` [Example 73d], the “herbicidal activity against harmful plants pre-emergence” value in data set [1] is reported as “very good herbicidal activity”. Further, the “herbicidal activity against harmful plants post-emergence” value in data set [2] was “very good herbicidal activity”.

Turning to `N#Cc1cc(Oc2csc(C(F)(F)F)c2)cc(Oc2csc(C(F)(F)F)c2)c1` [Example 74c], the “herbicidal activity against harmful plants pre-emergence” value in data set [1] is reported as “very good herbicidal activity”. Further, the “herbicidal activity against harmful plants post-emergence” value in data set [2] was “very good herbicidal activity”. For the compound `Cn1nc(C(F)(F)F)cc1Oc1cc(C#N)cc(Oc2cc(C(F)(F)F)n(C)n2)c1` [Example 75a], the “herbicidal activity against harmful plants pre-emergence” value in data set [1] is “very good herbicidal activity”. Moreover, the “herbicidal activity against harmful plants post-emergence” value in data set [2] is “very good herbicidal activity”. As for `Cn1nc(C(F)(F)F)cc1Oc1cc(C#N)cc(Oc2cc(C(F)(F)F)nn2C)c1` [Example 76a], the “herbicidal activity against harmful plants pre-emergence” value in data set [1] is listed as “very good herbicidal activity”. Besides, the “herbicidal activity against harmful plants post-emergence” value in data set [2] is given as “very good herbicidal activity”. Turning to `Cn1nc(C(F)(F)F)cc1Oc1cc(Oc2cc(C(F)(F)F)nn2C)cc(C(N)=O)c1` [Example 77a], the “herbicidal activity against harmful plants pre-emergence” value in data set [1] was “very good herbicidal activity”. In addition, the “herbicidal activity against harmful plants post-emergence” value in data set [2] is listed as “very good herbicidal activity”.

On to `Cn1nc(C(F)(F)F)cc1Oc1cc(Oc2cc(C(F)(F)F)nn2C)cc([N+](=O)[O-])c1` [Example 397a], for which the “herbicidal activity against harmful plants pre-emergence” value in data set [1] is “very good herbicidal activity”. Further, the “herbicidal activity against harmful plants post-emergence” value in data set [2] is given as “very good herbicidal activity”. Turning to `Cn1nc(C(F)(F)F)cc1Oc1cc(F)cc(C#N)c1` [Example 1136a], in data set [1], the “herbicidal activity against harmful plants pre-emergence” value is “very good herbicidal activity”. The “herbicidal activity against harmful plants post-emergence” value in data set [2] is “very good herbicidal activity”.

Turning to `N#Cc1cc(F)cc(Oc2csc(C(F)(F)F)c2)c1` [Example 1136c], in data set [1], the “herbicidal activity against harmful plants pre-emergence” value is listed as “very good herbicidal activity”. The “herbicidal activity against harmful plants post-emergence” value in data set [2] is “very good herbicidal activity”.

For `Cn1nc(C(F)(F)F)cc1Oc1cc(C#N)cc(C#N)c1` [Example 1140a], the “herbicidal activity against harmful plants pre-emergence” value in data set [1] is “very good herbicidal activity”. For the same compound, in data set [2], the “herbicidal activity against harmful plants post-emergence” value is given as “very good herbicidal activity”. Take `N#Cc1cc(C#N)cc(Oc2csc(C(F)(F)F)c2)c1` [Example 1140c]: in data set [1], the “herbicidal activity against harmful plants pre-emergence” value is “very good herbicidal activity”. Moreover, the “herbicidal activity against harmful plants post-emergence” value in data set [2] is “very good herbicidal activity”. For the compound `N#Cc1cc(C#N)cc(Oc2ccnc(C(F)(F)F)c2)c1` [Example 1140d], the “herbicidal activity against harmful plants pre-emergence” value in data set [1] is “very good herbicidal activity”. In addition, the “herbicidal activity against harmful plants post-emergence” value in data set [2] is “very good herbicidal activity”. Take `Cn1nc(C(F)(F)F)cc1Oc1cc(F)cc([N+](=O)[O-])c1` [Example 1156a]: the “herbicidal activity against harmful plants pre-emergence” value in data set [1] was “very good herbicidal activity”. Further, the “herbicidal activity against harmful plants post-emergence” value in data set [2] was “very good herbicidal activity”. Turning to `Cn1nc(C(F)(F)F)cc1Oc1cc(C#N)cc(-n2ccc(C(F)(F)F)n2)c1` [Example 1161a], the “herbicidal activity against harmful plants pre-emergence” value in data set [1] is given as “very good herbicidal activity”. Also, the “herbicidal activity against harmful plants post-emergence” value in data set [2] was “very good herbicidal activity”. Regarding `CC(C)OCCOc1cc(C#N)cc(Oc2cc(C(F)(F)F)nn2C)c1` [Example 1169a], the “herbicidal activity against harmful plants pre-emergence” value in data set [1] is “very good herbicidal activity”. In data set [2], the “herbicidal activity against harmful plants post-emergence” value is listed as “very good herbicidal activity”. Consider `CCOCCOCCOc1cc(C#N)cc(Oc2cc(C(F)(F)F)nn2C)c1` [Example 1171a], for which, in data set [1], the “herbicidal activity against harmful plants pre-emergence” value was “very good herbicidal activity”. The “herbicidal activity against harmful plants post-emergence” value in data set [2] is recorded as “very good herbicidal activity”. On to `COCCCOc1cc(C#N)cc(Oc2cc(C(F)(F)F)nn2C)c1` [Example 1177a], for which, in data set [1], the “herbicidal activity against harmful plants pre-emergence” value is reported as “very good herbicidal activity”. In addition, the “herbicidal activity against harmful plants post-emergence” value in data set [2] was “very good herbicidal activity”.

As to `Cn1nc(C(F)(F)F)cc1Oc1cc(C#N)cc(OCC2CCCO2)c1` (stereo not shown) [Example 1180a], the “herbicidal activity against harmful plants pre-emergence” value in data set [1] is reported as “very good herbicidal activity”. For the same compound, in data set [2], the “herbicidal activity against harmful plants post-emergence” value was “very good herbicidal activity”. For `Cn1nc(C(F)(F)F)cc1Oc1cc(C#N)cc(OCC2COC(C)(C)O2)c1` (stereo not shown) [Example 1182a], in data set [1], the “herbicidal activity against harmful plants pre-emergence” value is reported as “very good herbicidal activity”. In addition, the “herbicidal activity against harmful plants post-emergence” value in data set [2] was “very good herbicidal activity”.
